Source: PMC4536891, “Insertion of a xylanase in xylose binding protein results in a xylose-stimulated xylanase” (Biotechnology for Biofuels, 2015)

Legend:
[1] = target: T1, parental XynA (Bacillus subtilis, UniProt P18429); test: RBB-xylan hydrolysis by culture supernatant, dye release at […] nm; format: biochemical; conditions: 1% (m/v) D-xylose; acetate pH 5.5, 37 °C; product inhibition
T1 construct: GH11 xylanase, mature 185 residues; activity ratio measured in culture supernatants

[2] = target: T2, 2091A (XynA inserted in XBP at position 209); test: intrinsic tryptophan fluorescence titration; format: binding, Escherichia coli; conditions: 20 mM Hepes pH 7.5, 25 °C; 3 µM protein; XBP domain site, allosteric activator of xylanase
T2 construct: gene xylF; single polypeptide: XBP to A209, linker AG, XynA (1-185), linker GGA, XBP from residue 210; pET28a, E. coli Rosetta (DE3), Ni-NTA (His tag not described); with Endo-1,4-beta-xylanase A

[3] = target: T3, parental XBP (xylose binding protein, XylF) (Escherichia coli, UniProt P37387); test: intrinsic tryptophan fluorescence titration; conditions: 20 mM Hepes pH 7.5, 25 °C; 3 µM protein
T3 construct: full XBP expressed in E. coli Rosetta (DE3) and purified; vector, tag and signal peptide of the purified parental XBP not described
T3 sequence (P37387 24-330): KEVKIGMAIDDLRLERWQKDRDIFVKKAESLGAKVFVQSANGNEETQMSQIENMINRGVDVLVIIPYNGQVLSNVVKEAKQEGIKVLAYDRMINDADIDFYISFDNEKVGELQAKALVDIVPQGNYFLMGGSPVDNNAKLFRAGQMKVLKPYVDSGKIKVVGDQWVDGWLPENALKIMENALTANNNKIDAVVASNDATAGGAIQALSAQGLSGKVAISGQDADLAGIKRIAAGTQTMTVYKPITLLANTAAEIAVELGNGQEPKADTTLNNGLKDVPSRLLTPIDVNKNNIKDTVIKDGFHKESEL

[4] = target: T4, 2621B (XynA inserted in XBP at position 262); test: intrinsic tryptophan fluorescence titration; format: binding, Escherichia coli; conditions: 20 mM Hepes pH 7.5, 25 °C; 3 µM protein; XBP domain site, allosteric activator of xylanase
T4 construct: gene xylF; single polypeptide: XBP to Q262, linker GGGG, XynA (1-185), linker GA, XBP from residue 263; pET28a, E. coli Rosetta (DE3), Ni-NTA (His tag not described); with Endo-1,4-beta-xylanase A

+xyl/-xyl ratio^a [1]: 0.80 ± 0.04
Kd [2]: 150 ± 20 nM
Kd [3]: 140 ± 30 nM
Kd [4]: 160 ± 10 nM
Compound: OC1OC[C@@H](O)[C@H](O)[C@H]1O (stereo partly drawn) [D-xylose]
